Assay results published in publication PMC6283615, “Anilinoquinoline based inhibitors of trypanosomatid proliferation” (PLoS Neglected Tropical Diseases, 2018).
Read-outs that look alike come from different tables or passages of the source.

What was measured:
[1] = Plasma and brain pharmacokinetics after single i.p. dose; format: in vivo; details: 10 mg/kg i.p., female BALB/c mice; for Kp: female, BALB/c, brain/plasma, 10 mg/kg
Procedure: PK parameters were measured for both brain and plasma following a single intraperitoneal (i.p.) dose of 10 mg/kg (see Supplementary information, S5 and S6 Tables).
Table S5. Pharmacokinetic parameters of NEU-1060 (compound 14) in plasma and brain following a single intraperitoneal administration in female BALB/c mice (Dose:
Compound Dose Route Matrix Tmax Cmax AUClast AUCinf […]
*The density of brain homogenate was considered as 1 which is equivalent to plasma density (1); Brain conc. and exposure expressed as ng/g and hr.ng/g, respectively.
NC – not calculated due to improper elimination phase
Table S6. Brain to plasma exposure ratio of NEU-1060 (compound 14) after a single intraperitoneal administration in female BALB/c mice (Dose: 10 mg/kg)
Compound Dose Route Matrix Cmax Cmax AUClast Brain to plasma
(mg/kg) (ng/mL) ratio (hr*ng/mL) exposure ratio

[2] = system: T. b. brucei (strain 427); test: T. b. brucei proliferation assay (PrestoBlue, 48 h); format: cell-based, Trypanosoma brucei brucei; details: Trypanosoma brucei
Procedure, shortened: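 T. b. brucei strain 427, 2.5×10^3 per well in HMI-9, exposed to compounds from 50 μM in 1:2 dilutions, in triplicate. Incubated 48 h at 37°C, 5% CO2. PrestoBlue added for 4 h more, fluorescence read at ex 530/em 590 nm.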

[3] = Human plasma protein binding; format: in vitro ADME; details: read-out: Human PPB (converted)
[4] = LogD7.4; format: physicochemical; details: pH 7.4
[5] = system: T. vivax STIB 719 / ILRAD 560; test: Ex vivo drug sensitivity assay for T. vivax (48 h); format: cell-based; details: Trypanosoma vivax, STIB719, 48 h
Procedure: Ex vivo drug sensitivity assay for T. vivax (48 h): Compounds were tested ex vivo against the STIB 719 / ILRAD 560 T. vivax (drug sensitive) strain which originated from the Y486 strain, isolated from a naturally infected bovine in 1976 in Zaria, Nigeria. Compounds were assayed in at least three separate, independent experiments and an 11-point dilution curve was used to determine the EC50 values. Bloodstream form trypanosomes were harvested from a highly parasitaemic mouse (via cardiac puncture) and were incubated with test compounds for 45 h at 37°C in a humidified atmosphere containing 5% CO2, supported in HMI-9 medium containing 20% bovine serum. Thereafter, Resazurin dye was added to monitor trypanosome viability as described in the preceding section.

[6] = system: HepG2 cells; test: Drug toxicity to HepG2 cells (MTT, 48 h); format: cell-based, human; details: tested concentration ranges based on compound solubility
Procedure, shortened: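 HepG2 cells plated overnight, then exposed 48 h to twelve 1.6-fold dilutions (57–10,000 ng/mL) in duplicate at 37° C, 5% CO2. MTT added for 1 h at room temperature; formazan dissolved in acidified isopropanol, absorbance read.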

[7] = system: NIH/3T3 cells; test: Drug toxicity to 3T3 cells (Alamar Blue, 96 h); format: cell-based

| Compound | Brain to plasma exposure ratio ([1]; AUClast based, listed as NEU-1060, 10 mg/kg) | AUClast ([1]; brain) | Kp ([1]; mouse, ip, AUClast based, read-out: Brain to plasma exposure ratio) | Kp ([1]; mouse, ip, brain to plasma, read-out: Cmax ratio) | Cmax ([1]; mouse, ip, brain) | Tmax ([1]; mouse, ip, brain) | AUC(0-t) ([1]; mouse, ip, plasma) | Cmax ([1]; mouse, ip, plasma) | Tmax ([1]; mouse, ip, plasma) | EC50 [2] | fraction unbound [3] | logD [4] | EC50 [5] | HepG2 TC50 [6] | 3T3 TC50 [7] | LogD7.4 [4] |
| --- | --- | --- | --- | --- | --- | --- | --- | --- | --- | --- | --- | --- | --- | --- | --- | --- |
| CN1CCN(c2ncc(-c3ccc4c(Nc5ccc(OCc6cccc(F)c6)c(Cl)c5)ccnc4c3)cn2)CC1 [Compound 14] | 7.43 | 3474.83 ng·h/g | 7.4 | 2.85 | 211 ng/g | 4 h | 468 ng·h/mL | 74 ng/mL | 0.25 h | 6 nM | < 0.01 | 3.4 | 200 nM | – | – | – |
| CN1CCN(c2ncc(-c3ccc4c(Nc5cnccn5)ccnc4c3)cn2)CC1 [Compound 22] | – | – | – | – | – | – | – | – | – | – | – | – | 720 nM | > 38000 nM | 34000 nM | 3.3 |
